Assay results as given in patent publication US10238688B2, “Combination therapies for bladder cancer” (GENEDIA BIOTECH CO. LTD., priority 2015, dated 2019).

Tests used:
SCaBER = assay: MTT cell survival / IC50, SCaBER squamous carcinoma cells; format: cell-based, human; conditions: for Single drug 4X Cell Survival (%): ng/ml: EH 1000, Ci 6000, Mi 800, Pi 160, Pa 640, Ge 20, EH/Ci/Mi regimen; for Cell survival (%): Table S3, ng/ml: Pi 40, Pa 160, EH 250, Ci 1500, Mi 200, 1=Ci/Mi, 2=EH/Ci/Mi, 3=Pa/Ci/Mi, 4=Pi/Ci/Mi
Protocol: (§1) The clinical grade of the chemotherapeutics (NCI Dictionary of Cancer Terms) was provided by the First Affiliated Hospital of Harbin Medical University: Pirarubicin (Pi, Wanle, Shenzhen), Paclitaxel (Pa, Taiji, Sichuan), Adriamycin (Ad, Pfizer, Jiangsu), Epirubicin Hydrochloride (EH, Haizheng, Zhejiang), Hydroxycamptothecin (Hy, Lishizhen, Hubei), Cisplatin (Ci, Haosen, Jiangsu), Gemcitabine (Ge, Haosen, Jiangsu) and Mitomycin (Mi, Haizheng, Zhejiang). The drug induced cell death was determined by a thiazolyl […] (MTT, 490 nm reading) based cell proliferation assay in the cultured cells following treatment by various concentrations of drugs for 72 hours. The relative chemoresistance to each drug of all cell lines was calculated with the lowest IC50 as a reference. The overall chemoresistance of each cell line was described as “chemoresistance index”, the numerator of the total relative IC50 to all the drugs over the number of drugs to rank the overall resistance state of each cell line to the six chemotherapeutics collectively.
(§2) The relative IC50 (fold) of each drug of all nine cell lines was normalized to the lowest IC50 in the most sensitive cell line (FIG. 2G), to describe the single drug resistance of cell lines. The overall chemoresistance of each cell line, a “chemoresistance index” (the numerator of the total relative IC50 over the number of drugs) (FIG. 2G) were calculated to rank the overall resistance state of each cell line to this six chemotherapeutics.

SV-HUC-1 = format: cell-based; conditions: SV-HUC-1; ng/ml: EH 1000, Ci 6000, Mi 800, Pi 160, Pa 640, Ge 20; EH/Ci/Mi regimen
Protocol: as §1, §2

UM-UC-3 = assay: MTT cell survival / IC50, UM-UC-3 cells; format: cell-based, human; conditions: UM-UC-3; for Single drug 4X Cell Survival (%): ng/ml: EH 1000, Ci 6000, Mi 800, Pi 160, Pa 640, Ge 20, EH/Ci/Mi regimen; for Cell survival (%): Table S3, ng/ml: Pi 40, Pa 160, EH 250, Ci 1500, Mi 200, 1=Ci/Mi, 2=EH/Ci/Mi, 3=Pa/Ci/Mi, 4=Pi/Ci/Mi
Protocol: as §1, §2
(§3) Twenty six-drug combinations at the indicated doses were initially generated through a random number generator (using MATLAB MathWorks©, Natick, Mass., U.S.) (The upper half of Table 1). The cell survival (% over the not drug control) of treated cells was determined and then used for a calculation of the average cumulative cell survival (%, ACS: the sum of cell survival (%) per combination divided by the number of cell lines tested). ACS<30% was used to separate the effective from the not-effective combinations.

[1] = test system: bladder cancer cell lines; assay: Average cumulative cell survival (ACS) over the panel of cell lines tested; format: cell-based, human; conditions: for ACS (%) for cancer cells: seven cancer cell lines, ng/ml: EH 1000, Ci 6000, Mi 800, Pi 160, Pa 640, Ge 20, EH/Ci/Mi regimen; for ACS (%): eight cell lines, Table S3, ng/ml: Pi 40, Pa 160, EH 250, Ci 1500, Mi 200, 1=Ci/Mi, 2=EH/Ci/Mi, 3=Pa/Ci/Mi, 4=Pi/Ci/Mi
Protocol: as §1
The “Differential Evolution” algorithm guided experimental optimization (DE) consisted of three iterative operations: generating drug combinations of experimental testing, acquiring the efficacy of the generated drug combinations with biological assays and recalculating further improved drug combinations using a feedback search algorithm. This example first tested twenty drug combinations at randomized doses. These drug combinations were generated from a random integer matrix generator, coded in MATLAB™ language. These twenty drug combinations were then experimentally tested for cancer cell cytotoxicity. The experimental data were then subjected to calculation with a DE algorithm for new drug combinations based on three major mathematical calculations: “Mutation”, “Crossover” and “Selection”. The equations for each step can be found in the main test. The equations for each step are coded in MATLAB™ language.
as §3, with “combinations. Nine of the twenty combinations tested in the 1st round of iteration fell into this category (the lower half of Table 1).” for “combinations.”

Biu87 = assay: MTT cell survival / IC50, Biu87 cells; format: cell-based, human; conditions: Biu87; for Single drug 4X Cell Survival (%): ng/ml: EH 1000, Ci 6000, Mi 800, Pi 160, Pa 640, Ge 20, EH/Ci/Mi regimen; for Cell survival (%): Table S3, ng/ml: Pi 40, Pa 160, EH 250, Ci 1500, Mi 200, 1=Ci/Mi, 2=EH/Ci/Mi, 3=Pa/Ci/Mi, 4=Pi/Ci/Mi
Protocol: as §1, §2, §3

H-bc = assay: MTT cell survival / IC50, H-bc cells; format: cell-based, human; conditions: H-bc; for Single drug 4X Cell Survival (%): ng/ml: EH 1000, Ci 6000, Mi 800, Pi 160, Pa 640, Ge 20, EH/Ci/Mi regimen; for Cell survival (%): Table S3, ng/ml: Pi 40, Pa 160, EH 250, Ci 1500, Mi 200, 1=Ci/Mi, 2=EH/Ci/Mi, 3=Pa/Ci/Mi, 4=Pi/Ci/Mi
Protocol: as §1, §2, §3

5637 = assay: MTT cell survival / IC50, 5637 cells; format: cell-based, human; conditions: 5637; for Single drug 4X Cell Survival (%): ng/ml: EH 1000, Ci 6000, Mi 800, Pi 160, Pa 640, Ge 20, EH/Ci/Mi regimen; for Cell survival (%): Table S3, ng/ml: Pi 40, Pa 160, EH 250, Ci 1500, Mi 200, 1=Ci/Mi, 2=EH/Ci/Mi, 3=Pa/Ci/Mi, 4=Pi/Ci/Mi
Protocol: as §1, §2, §3

T24 = assay: MTT cell survival / IC50, T24 cells; format: cell-based, human; conditions: for Single drug 4X Cell Survival (%): ng/ml: EH 1000, Ci 6000, Mi 800, Pi 160, Pa 640, Ge 20, EH/Ci/Mi regimen; for Cell survival (%): Table S3, ng/ml: Pi 40, Pa 160, EH 250, Ci 1500, Mi 200, 1=Ci/Mi, 2=EH/Ci/Mi, 3=Pa/Ci/Mi, 4=Pi/Ci/Mi
Protocol: as §1, §2, §3

EJ = assay: MTT cell survival / IC50, EJ cells; format: cell-based, human; conditions: for Single drug 4X Cell Survival (%): ng/ml: EH 1000, Ci 6000, Mi 800, Pi 160, Pa 640, Ge 20, EH/Ci/Mi regimen; for Cell survival (%): Table S3, ng/ml: Pi 40, Pa 160, EH 250, Ci 1500, Mi 200, 1=Ci/Mi, 2=EH/Ci/Mi, 3=Pa/Ci/Mi, 4=Pi/Ci/Mi
Protocol: as §1, §2, §3

J-82 = assay: MTT cell survival / IC50, J-82 cells; format: cell-based, human; conditions: J82; Table S3; ng/ml: Pi 40, Pa 160, EH 250, Ci 1500, Mi 200; 1=Ci/Mi, 2=EH/Ci/Mi, 3=Pa/Ci/Mi, 4=Pi/Ci/Mi
Protocol: as §1, §2, §3

Row | SMILES | Single drug 4X Cell Survival (%) (SCaBER) | Single drug 4X Cell Survival (%) (SV-HUC-1) | Single drug 4X Cell Survival (%) (UM-UC-3) | ACS (%) for cancer cells [1] | Single drug 4X Cell Survival (%) (Biu87) | Single drug 4X Cell Survival (%) (H-bc) | Single drug 4X Cell Survival (%) 5637 | Single drug 4X Cell Survival (%) (T24) | Single drug 4X Cell Survival (%) (EJ) | Cell survival (%) (SCaBER) | Cell survival (%) (UM-UC-3) | ACS (%) [1] | Cell survival (%) (Biu87) | Cell survival (%) (J-82) | Cell survival (%) (H-bc) | Cell survival (%) 5637 | Cell survival (%) (T24) | Cell survival (%) (EJ)
1 | Nc1ccn([C@@H]2O[C@H](CO)[C@@H](O)C2(F)F)c(=O)n1 [Ge, Gemcitabine] | 30.87% | 87.83% | 46.97% | 42.19% | 30.82% | 83.17% | 30.06% | 41.49% | 31.95% | – | – | – | – | – | – | – | – | –
2 | CC(=O)O[C@H]1C(=O)[C@@]2(C)[C@H]([C@H](OC(=O)c3ccccc3)[C@]3(O)C[C@H](OC(=O)[C@H](O)[C@@H](NC(=O)c4ccccc4)c4ccccc4)C(C)=C1C3(C)C)[C@]1(OC(C)=O)CO[C@@H]1C[C@@H]2O [Pa, Paclitaxel] | 42.21% | 80.17% | 27.74% | 20.89% | 17.58% | 12.89% | 2.09% | 17.31% | 26.38% | 57.91% | 40.09% | 28.08% | 23.08% | 38.51% | 13.96% | 6.45% | 11.55% | 33.05%
3 | COc1cccc2c1C(=O)c1c(O)c3c(c(O)c1C2=O)C[C@@](O)(C(=O)CO)CC3O[C@H]1C[C@H](N)[C@H](O[C@@H]2CCCCO2)[C@H](C)O1 (stereo partly drawn) [Pi, (3S)-3-glycoloyl-3,5,12-trihydroxy-10-methoxy-6,11-dioxo-1,2,3,4,6,11-hexahydrotetracen-1-yl 3-amino-2,3,6-trideoxy-4-O-[(2R)-tetrahydro-2H-pyran-2-yl]-α-L-lyxo-hexopyranoside] | 10.24% | 91.79% | 31.44% | 21.32% | 26.98% | 16.04% | 3.48% | 39.8% | 21.25% | 30.04% | 65.59% | 48.44% | 41.67% | 55.37% | 86.89% | 29.22% | 48.33% | 30.38%
